Experimental data: patent US11541098B2, “Peptide composition for treating excitatory neurotoxicity related injuries” (Biocells (Beijing) Biotech Co., Ltd., priority 2017, dated 2023)
Values joined by “and” are separate entries in the source; they are usually repeats but may differ in a detail not shown here. Equal entries are not always repeated. Peptide text beside a SMILES is read from it.

What was measured:
MCAO model rats [1] = experiment: Therapeutic effect on MCAO model rats (cerebral infarction volume, TTC staining); conditions: rat, in vivo
Experimental: The focal cerebral ischemia-reperfusion model was prepared according to the reversible middle cerebral artery occlusion (MCAO) suture method proposed by Longa with modifications in view of the anatomical structure of the rat brain. The rats were anesthetized by intraperitoneal administration of 10% chloral hydrate at a dose of […]. After anesthetization, a cut was created at the cervical midline, and the common carotid artery (CCA), external carotid artery (ECA) and pterygopalatine artery were exposed. The head portion (0.5 cm) of a monofilament nylon fishing line (0.26 mm) was coated with paraffin and a mark was made at 20 mm. All rats were inserted through the right CCA incision, and the pterygopalatine artery was temporarily clamped to prevent mis-insertion. The length of the occlusion line was about 18-20 mm from the bifurcation of CCA depending on the animal's weight, thereby occluding middle cerebral artery on the right side. The skin was then sewed, and the tail end of the occlusion line was partially fixed to the skin. After a period of ischemia for 2 hours, the occlusion line was carefully pulled out to form a reperfusion. The procedure steps for the sham control were the same as the surgery group, except for insertion of a nylon fishing line. The body temperature was maintained at 37±0.5° C. during the ischemia period and 2 h after reperfusion.
The used animals were male adult SD rats (Vittalia) of SPF grade with body weight of 220-250 g.
No drug was administered to the normal group and the sham group.
The rats were sacrificed by decapitation after scoring. The brain tissues were quickly removed and placed in a refrigerator at −20° C. After 10 minutes, the tissues were placed in a room temperature environment. The brains were placed in a rat brain section mold. After the olfactory bulb, cerebellum and low brain stem were removed, the brains were coronally cut five times at 2 mm thickness as shown in the profile to obtain six continuous raw coronal slices. Then, the brain sections were quickly placed in a 5 ml solution containing 2% TTC, and incubated at 37° C. for 30 minutes in the dark, during which the brain sections were flipped once every 5 minutes. With the TTC staining, the normal tissue would be rose red, and the infarcted tissue would be unstained and retained white. Each group of brain sections was arranged neatly, and photographed. The photos were processed by an image analysis system software and statistically analyzed. The infarction area of each brain section was calculated, and multiplied by the thickness of each brain section (2 mm). The products of the infarction area of individual brain section multiplied by the thickness were summed to obtain the cerebral infarction volume for each animal. The volumes were expressed as percentages accounting for the cerebral hemisphere to eliminate the effects of cerebral edema.

MCAO model rats [2] = experiment: HE staining for histological changes of rat brain after ischemia; assay type: in vivo; conditions: 10 mg/kg, 24 h after ischemia
Experimental: The rats in each group were decapitated at 24 h after ischemia, and the resultant brain was coronally sectioned near the optic chiasm with a thickness of about 4 mm. The sections were fixed with 10% formalin solution and dehydrated with alcohol with a concentration gradient from 70% to 100%. The sections were permeabilized twice in xylene, and embedded in paraffin. The paraffin block was carefully trimmed, and immobilized on a paraffin slicing machine, and sliced to sections with a thickness of 4 μm. The paraffin sections were completely unfolded, attached to a clean and dry glass slide, and stored in a refrigerator at 4° C. Conventional HE staining was performed, and the staining results were observed by light microscopy.

rats = experiment: Acute toxicity test on rats; assay type: in vivo, rat; conditions: dose of 200 mg/kg body weight
Experimental: Acute toxicity tests were performed on rats.

Compound	Mean of infarction volume percentage (%) (MCAO model rats [1])	Mean of infarction volume percentage (%) (MCAO model rats [1]; 1 mg/kg)	Reduction of infarction volume percentage vs model group (MCAO model rats [1]; 1 mg/kg)	Mean of infarction volume percentage (%) (MCAO model rats [1]; 3 mg/kg)	Reduction of infarction volume percentage vs model group (MCAO model rats [1]; 3 mg/kg)	Mean of infarction volume percentage (%) (MCAO model rats [1]; 10 mg/kg)	pathological changes of brain tissue (HE staining) (MCAO model rats [2]; prophylactic administration)	pathological changes of brain tissue (HE staining) (MCAO model rats [2]; therapeutic administration)	acute toxicity (rats)
CC[C@H](C)[C@H](NC(=O)[C@H](CCC(=O)O)NC(=O)[C@@H](NC(=O)[C@H](CC(=O)O)NC(=O)[C@H](CC(C)C)NC(=O)[C@H](CC(C)C)NC(=O)[C@H](CCCCN)NC(=O)[C@H](CCC(=O)O)NC(=O)[C@H](Cc1ccc(O)cc1)NC(=O)[C@H](CCCNC(=N)N)NC(=O)[C@H](CCCNC(=N)N)NC(=O)[C@H](CCCNC(=N)N)NC(=O)[C@H](CCC(N)=O)NC(=O)[C@H](CCCNC(=N)N)NC(=O)[C@H](CCCNC(=N)N)NC(=O)[C@H](CCCCN)NC(=O)[C@H](CCCCN)NC(=O)[C@H](CCCNC(=N)N)NC(=O)CNC(=O)[C@@H](N)Cc1ccc(O)cc1)[C@@H](C)O)C(=O)O [P5]	24.84% and 36.54% and 43.22%	44.23%	3.76%	35.66%	22.41%	19.54%	significantly improved	significantly improved	no lethal effect and other obvious toxic side effects
CC[C@H](C)[C@H](NC(=O)[C@H](CO)NC(=O)[C@H](CO)NC(=O)[C@H](CC(C)C)NC(=O)[C@H](CCCCN)NC(=O)[C@H](CCCNC(=N)N)NC(=O)[C@H](CCCNC(=N)N)NC(=O)[C@H](CCCNC(=N)N)NC(=O)[C@H](CCC(N)=O)NC(=O)[C@H](CCCNC(=N)N)NC(=O)[C@H](CCCNC(=N)N)NC(=O)[C@H](CCCCN)NC(=O)[C@H](CCCCN)NC(=O)[C@H](CCCNC(=N)N)NC(=O)CNC(=O)[C@@H](N)Cc1ccc(O)cc1)C(=O)N[C@@H](CCC(=O)O)C(=O)N[C@@H](CO)C(=O)N[C@@H](CC(=O)O)C(=O)N[C@H](C(=O)O)C(C)C [NA-1, reference compound] (H-YGRKKRRQRRRKLSSIESDV-OH)	38.56%	–	–	–	–	–	–	–	–
CC[C@H](C)[C@H](NC(=O)[C@H](CO)NC(=O)[C@H](CO)NC(=O)[C@H](CC(C)C)NC(=O)[C@H](CCCCN)NC(=O)[C@H](CCC(=O)O)NC(=O)[C@H](Cc1ccc(O)cc1)NC(=O)[C@H](CCCNC(=N)N)NC(=O)[C@H](CCCNC(=N)N)NC(=O)[C@H](CCCNC(=N)N)NC(=O)[C@H](CCC(N)=O)NC(=O)[C@H](CCCNC(=N)N)NC(=O)[C@H](CCCNC(=N)N)NC(=O)[C@H](CCCCN)NC(=O)[C@H](CCCCN)NC(=O)[C@H](CCCNC(=N)N)NC(=O)CNC(=O)[C@@H](N)Cc1ccc(O)cc1)C(=O)N[C@@H](CCC(=O)O)C(=O)N[C@@H](CO)C(=O)N[C@@H](CC(=O)O)C(=O)N[C@H](C(=O)O)C(C)C [YE-NA-1] (H-YGRKKRRQRRRYEKLSSIESDV-OH)	33.96%	–	–	–	–	–	–	–	–
